Results published in publication PMC7614749 (Chemistry (Weinheim an der Bergstrasse, Germany), 2023).

Target: T1, transketolase (TK) (Zea mays, UniProt Q7SIC9)
T1 sequence (Q7SIC9 1-675): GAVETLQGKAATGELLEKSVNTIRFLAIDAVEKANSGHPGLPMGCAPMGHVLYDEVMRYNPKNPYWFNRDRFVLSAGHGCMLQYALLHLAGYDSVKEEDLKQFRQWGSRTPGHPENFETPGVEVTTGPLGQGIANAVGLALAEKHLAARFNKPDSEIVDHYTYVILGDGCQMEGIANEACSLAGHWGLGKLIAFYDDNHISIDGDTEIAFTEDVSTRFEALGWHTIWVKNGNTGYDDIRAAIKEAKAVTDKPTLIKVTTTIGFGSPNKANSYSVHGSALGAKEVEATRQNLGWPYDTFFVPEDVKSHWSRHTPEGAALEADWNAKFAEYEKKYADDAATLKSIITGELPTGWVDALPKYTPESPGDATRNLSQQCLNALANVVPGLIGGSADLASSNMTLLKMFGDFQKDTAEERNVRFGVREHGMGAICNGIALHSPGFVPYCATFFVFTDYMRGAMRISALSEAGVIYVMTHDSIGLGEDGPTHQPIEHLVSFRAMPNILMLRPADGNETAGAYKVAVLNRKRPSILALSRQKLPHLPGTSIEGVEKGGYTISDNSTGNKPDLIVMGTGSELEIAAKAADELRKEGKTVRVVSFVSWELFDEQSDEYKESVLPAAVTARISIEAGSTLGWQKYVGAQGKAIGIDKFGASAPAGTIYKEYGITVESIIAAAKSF
Experiment: in vitro dose-response enzymatic activity assay
Format: biochemical
Settings: read-out: enzymatic assay / IC50

Compound: C/C=C1/CC2=C(C(=O)OC2=O)[C@H](CCC)[C@H](O)C(=O)C[C@@H]1O [compound 6, cornexistin]
- IC50: 50 ± 5 µM
